Series [1] has as its system Radical scavenging activity. The series is described as follows: Antioxidant activity assessed as DPPH radical scavenging activity at 3.6 mM after 10 min. In kind it is functional.
For series [2], the system named is Staphylococcus aureus. The series is described as follows: Antimicrobial activity against Staphylococcus aureus 209 assessed as growth inhibition after 24 hr by serial dilution method. Type of series: functional. As to conditions: Staphylococcus aureus, 209, 24 h; call rule not given here.
Series [3] has as its system Radical scavenging activity. The series is described as follows: Antioxidant activity assessed as DPPH radical scavenging activity at 0.9 mM after 10 min. In kind it is functional.
Series [4] relates to Radical scavenging activity. As to the kind of experiment: Antioxidant activity assessed as DPPH radical scavenging activity at 3.6 mM after 20 min. In kind it is functional.
Series [5] has as its system Radical scavenging activity. As to the kind of experiment: Antioxidant activity assessed as DPPH radical scavenging activity at 1.8 mM after 20 min. In kind it is functional.
Series [6] concerns Radical scavenging activity. The series is described as follows: Antioxidant activity assessed as DPPH radical scavenging activity at 1.8 mM after 10 min. Type of series: functional.
Series [7] relates to Radical scavenging activity. The series is described as follows: Antioxidant activity assessed as DPPH radical scavenging activity at 0.9 mM after 20 min. Type of series: functional.
Series [8] deals with Streptococcus pyogenes. The series is described as follows: Antimicrobial activity against Streptococcus pyogenes 10535 assessed as growth inhibition after 24 hr by serial dilution method. The note with it: Streptococcus pyogenes, 10535, 24 h. In kind it is functional.
A short description of series [9]: Inhibition of autoxidation of pure triacylglycerols of sunflower oil at 1 mM by iodometric analysis. Type of series: toxicity. As to conditions: 1000 µM.

In brackets after ≈: the same amount, converted by molar mass.

The results in this text go back to ChEMBL document CHEMBL3045072, “Anti-tyrosinase, antioxidant and antimicrobial activities of hydroxycinnamoylamides” (Med Chem Res, 2013).

Regarding `COC(=O)[C@H](Cc1ccc(O)cc1)NC(=O)/C=C/c1cc(OC)c(O)c(OC)c1`, the Activity in [1] came out at 43%; in series [3], 14.2%; in series [4], 45.3%; in series [5] it was 25%; in series [6], 23.1%; in series [7] it was 15.6%. In addition, the MIC in series [2] stood at 125 µg/mL (≈ 311 µM); in [8], 250 µg/mL (≈ 623 µM).
Turning to `COC(=O)[C@H](Cc1ccccc1)NC(=O)/C=C/c1ccccc1`, the Activity in [1] came to 2.18%; in [3] it was 2%; in series [4], 2.58%; in series [5], 2.6%; in [6], 2.39%; in series [7] it was 2.52%.
Consider `COc1cc(/C=C/C(=O)O)ccc1O` [FERULATE], for which the Activity in [1] worked out at 36.7%; in series [3], 12.6%; in series [4], 44.3%; in series [5], 25.1%; in series [6], 21%; in series [7], 13.8%. Also, the minimum inhibitory concentration (MIC) in series [2] and in [8] was 125 µg/mL (≈ 644 µM) throughout. Moreover, the “inhibition (INH)” value in series [9] is “Active”.
As to `COc1cc(/C=C/C(=O)N[C@@H](Cc2ccccc2)C(=O)OC(C)(C)C)cc(OC)c1O`, the Activity in [1] is 46.8%; in series [3] it was 13.7%; in series [4], 50.6%; in series [5], 28.2%; in [6], 25%; in [7] it was 16.7%.
As for `CC(C)(C)OC(=O)[C@H](Cc1ccccc1)NC(=O)/C=C/c1ccc(O)cc1`, the Activity in series [1] is 2.46%; in [3] it was 1.97%; in [4], 2.92%; in series [5], 2.23%; in [6] it was 1.89%; in [7], 2.3%.
As for `O=C(/C=C/c1ccc(O)c(O)c1)NCCc1c[nH]c2ccccc12`, the MIC was 125 µg/mL (≈ 388 µM) in [2] and 62.5 µg/mL (≈ 194 µM) in series [8].
As to `COC(=O)[C@H](Cc1c[nH]c2ccccc12)NC(=O)/C=C/c1ccc(O)cc1`, the Activity in series [1] turned out to be 2.42%; in [3] it was 1.92%; in [4] it was 2.88%; in series [5], 2.37%; in series [6] it was 1.69%; in series [7], 2.13%.
`COC(=O)[C@H](Cc1ccc(O)c(O)c1)NC(=O)/C=C/c1ccc(O)c(O)c1` [N-CAFFEOYL-DOPA METHYL ESTER]: the Activity in series [1] amounted to 88.7%; in series [3], 44.8%; in series [4] it was 88.8%; in [5] it was 86%; in series [6] it was 82.5%; in [7], 50.5%. For the same compound, the “inhibition (INH)” value in [9] is “Active”.
In the case of `COc1cc(/C=C/C(=O)NCCc2c[nH]c3ccccc23)cc(OC)c1O`, the minimal inhibitory concentration (MIC) was 250 µg/mL (≈ 682 µM) in series [2] and 62.5 µg/mL (≈ 171 µM) in series [8].
`NC[C@H]1O[C@H](O[C@H]2[C@H](O)[C@@H](O[C@H]3O[C@H](CO)[C@@H](O)[C@H](N)[C@H]3O)[C@H](N)C[C@@H]2N)[C@H](N)C[C@@H]1O` [TOBRAMYCIN]: the MIC in [2] was 15.6 µg/mL (≈ 33.4 µM); in series [8], 7.81 µg/mL (≈ 16.7 µM).
As to `COC(=O)[C@H](Cc1c[nH]c2ccccc12)NC(=O)/C=C/c1cc(OC)c(O)c(OC)c1`, the Activity came out at 48.1% in series [1]; 13.7% in series [3]; 49.9% in series [4]; 27.3% in series [5]; 26% in series [6]; 14.6% in series [7]. The minimal inhibitory concentration (MIC) in series [8] worked out at 250 µg/mL (≈ 589 µM).
Regarding `COC(=O)[C@H](Cc1c[nH]c2ccccc12)NC(=O)/C=C/c1ccccc1`, the Activity is 1.18% in series [1]; 0.79% in [3]; 1.48% in series [4]; 1.41% in [5]; 1.2% in series [6]; 0.69% in [7].
Regarding `COC(=O)[C@H](Cc1ccc(O)c(O)c1)NC(=O)/C=C/c1ccc(O)c(OC)c1`, the Activity is 83.8% in series [1]; 24.3% in series [3]; 87% in [4]; 50.6% in [5]; 44.8% in series [6]; 28.5% in [7]. For the same compound, the minimal inhibitory concentration (MIC) in series [2] stood at 125 µg/mL (≈ 323 µM).
With `COc1cc(/C=C/C(=O)NCCc2ccc(O)c(O)c2)ccc1O` [N-TRANS-FERULOYLDOPAMINE], the minimum inhibitory concentration (MIC) in series [2] amounted to 62.5 µg/mL (≈ 190 µM); in [8], 125 µg/mL (≈ 380 µM).
As for `Cc1c(C)c2c(c(C)c1O)CCC(C)(CCCC(C)CCCC(C)CCCC(C)C)O2` (racemic), the Activity in [1] was determined as 62.9%; in series [3] it was 23.2%; in [4] it was 73.3%; in [5] it was 46.8%; in series [6] it was 40.8%; in [7], 24.8%.
On to `COC(=O)[C@H](Cc1ccc(O)c(O)c1)NC(=O)/C=C/c1cc(OC)c(O)c(OC)c1`, for which the Activity stood at 80.9% in series [1]; 23.8% in series [3]; 82.8% in series [4]; 45.8% in series [5]; 43.9% in series [6]; 25.4% in series [7]. Also, the “inhibition (INH)” value in [9] is reported as “Active”.
As for `COc1cc(/C=C/C(=O)NCCc2ccc(O)cc2)ccc1O` [N-TRANS-FERULOYL TYRAMINE], the MIC in series [2] was 62.5 µg/mL (≈ 199 µM); in series [8], 125 µg/mL (≈ 399 µM).
For `COc1cc(/C=C/C(=O)N[C@@H](Cc2ccccc2)C(=O)OC(C)(C)C)ccc1O`, the Activity in [1] amounted to 30.4%; in [3] it was 10.9%; in [4], 36.9%; in series [5], 23.6%; in series [6], 19.5%; in [7], 13.5%.
Regarding `COc1cc(/C=C/C(=O)O)cc(OC)c1O` [SINAPINATE], the Activity is 69% in series [1]; 16.1% in [3]; 69.6% in series [4]; 31.9% in series [5]; 26.5% in series [6]; 17.2% in [7]. Besides, the MIC in [2] and in series [8] was 125 µg/mL (≈ 558 µM) each time. Also, the “inhibition (INH)” value in series [9] is listed as “Active”.
With `COC(=O)[C@H](Cc1ccc(O)cc1)NC(=O)/C=C/c1ccc(O)c(O)c1`, the Activity turned out to be 89.6% in series [1]; 27.4% in series [3]; 90.2% in series [4]; 52.5% in series [5]; 51% in series [6]; 28.7% in series [7].
For `COC(=O)[C@H](Cc1ccc(O)cc1)NC(=O)/C=C/c1ccc(O)c(OC)c1`, the Activity in [1] turned out to be 24.8%; in series [3] it was 7.04%; in series [4], 29.2%; in series [5], 16.2%; in [6], 13.7%; in series [7], 8.79%. Moreover, the minimum inhibitory concentration (MIC) in series [2] is 15 µg/mL (≈ 40.4 µM).
Turning to `COC(=O)[C@H](Cc1ccc(O)cc1)NC(=O)/C=C/c1ccccc1`, the Activity was 2.12% in series [1]; 1.74% in series [3]; 2.57% in [4]; 2.3% in series [5]; 2.05% in series [6]; 2.12% in series [7].
Turning to `O=c1c(O)c(-c2ccc(O)c(O)c2)oc2cc(O)cc(O)c12`, the Activity stood at 76% in series [1]; 40.4% in [3]; 78% in [4]; 58.4% in [5]; 46.7% in series [6]; 45.2% in series [7].
With `COC(=O)[C@H](Cc1c[nH]c2ccccc12)NC(=O)/C=C/c1ccc(O)c(OC)c1`, the Activity was found to be 26.4% in series [1]; 7.96% in series [3]; 30.9% in series [4]; 17.4% in [5]; 14.5% in [6]; 9.76% in series [7].
As for `COC(=O)[C@H](Cc1ccc(O)c(O)c1)NC(=O)/C=C/c1ccccc1` [N-CINNAMOYL-DOPA METHYL ESTER], the Activity was 85% in series [1]; 24.4% in series [3]; 88.1% in series [4]; 48.4% in [5]; 45.5% in series [6]; 26.6% in series [7]. The “inhibition (INH)” value in series [9] is reported as “Active”.
In the case of `COc1cc(/C=C/C(=O)NCCc2ccc(O)cc2)cc(OC)c1O` [TRANS-N-SINAPOYLTYRAMINE], the minimal inhibitory concentration (MIC) in [2] and in [8] was 62.5 µg/mL (≈ 182 µM) throughout. Besides, the “inhibition (INH)” value in [9] is given as “Active”.
In the case of `O=C(O)/C=C/c1ccc(O)c(O)c1` [CAFFEIC ACID], the Activity in series [1] amounted to 88%; in series [3] it was 33.5%; in [4], 91.8%; in series [5], 64.3%; in series [6], 62.1%; in [7] it was 34.1%. Further, the MIC in series [2] and in [8] was 125 µg/mL (≈ 694 µM) throughout. Moreover, in [9], the “inhibition (INH)” value is given as “Active”.
For `COC(=O)[C@H](Cc1ccccc1)NC(=O)/C=C/c1ccc(O)c(O)c1` [N-CAFFEOYL-PHENYLALANINE METHYL ESTER], the Activity was determined as 90.3% in series [1]; 28.8% in series [3]; 90.5% in series [4]; 54.6% in [5]; 53.5% in series [6]; 29.7% in series [7]. Further, in series [9], the “inhibition (INH)” value is listed as “Active”.
For `COC(=O)[C@H](Cc1c[nH]c2ccccc12)NC(=O)/C=C/c1ccc(O)c(O)c1`, the Activity came out at 80.1% in series [1]; 27.1% in series [3]; 87.9% in series [4]; 50.4% in series [5]; 44.6% in [6]; 28.7% in series [7]. Besides, in series [9], the “inhibition (INH)” value is recorded as “Active”. Moreover, in series [8], the MIC is 250 µg/mL (≈ 657 µM).
Regarding `O=C(O)/C=C/c1ccccc1` [CINNAMIC ACID], the Activity in series [1] came to 0.32%; in [3] it was 0.3%; in [4], 0.35%; in [5], 0.35%; in [6] it was 0.32%; in [7] it was 0.32%. In series [9], the “inhibition (INH)” value is listed as “Not Active”.
